Laboratory results published in publication PMC6470675, “Design and Synthesis of New Quinoxaline Derivatives as Anticancer Agents and Apoptotic Inducers” (Molecules, 2019).
Where two headings read alike, the source gives them in different places.

Assays:
[1] = test system: Hep G2 human hepatocellular carcinoma cell line; assay: In vitro cell proliferation (MTT) assay, Hep G2; type: cell-based; conditions: for IC50: Homo sapiens, HepG2, MTT, 72 h exposure
Protocol: (§1) The targeted compounds were tested for their in-vitro anti-cancer activity against three tumor cell lines (HCT116, Hep G2 and MCF-7). Doxorubicin was included in the experiments as a reference cytotoxic compound. Exponentially growing cells from different cancer cell lines were trypsinized, counted and seeded at the appropriate densities into 96-well microtiter plates. Cells then were incubated in a humidified atmosphere at 37 °C for 24 h. Then, cells were exposed to different concentrations of compounds for 72 h. Then the viability of treated cells was determined using MTT technique (described latter).
(§2) Three cancer cell lines including human colon carcinoma (HCT116), human breast adenocarcinoma (MCF-7) and human hepatocellular carcinoma (Hep G2), were purchased from American Type Cell Culture Collection (ATCC, Manassas, VA, USA) and grown on the appropriate growth medium Dulbecco’s modified Eagle’s medium (DMEM) or Roswell Park Memorial Institute medium (RPMI 1640) supplemented with […] of streptomycin, 100 units/mL of penicillin and 10% of heat-inactivated fetal bovine serum in a humidified, 5% (v/v) CO2 atmosphere at 37 °C [34]. Cytotoxicity assay by 3-[4,5-dimethylthiazole-2-yl]-2,5-diphenyltetrazolium bromide (MTT).
(§3) Exponentially growing cells from different cancer cell lines were trypsinized, counted and seeded at the appropriate densities (2000–1000 cells/0.33 cm^2 well) into 96-well microtiter plates. Cells then were incubated in a humidified atmosphere at 37 °C for 24 h. Then, cells were exposed to different concentrations of compounds (0.1, 10, 100, 1000 µM) for 72 h. Then the viability of treated cells was determined using MTT technique as follow. Media were removed; cells were incubated with 200 μL of 5% MTT solution/well (Sigma Aldrich, Darmstadt, Germany) and were allowed to metabolize the dye into a colored-insoluble formazan crystal for 2 h. The remaining MTT solution were discarded from the wells and the formazan crystals were dissolved in 200 µl/well acidified isopropanol for 30 min, covered with aluminum foil and with continuous shaking using a MaxQ 2000 plate shaker (Thermo Fisher Scientific Inc, Waltham, MA, USA) at room temperature. Absorbance were measured at 570 nm using a Stat Fax^R 4200 plate reader (Awareness Technology, Inc., Awareness Technology, FL, USA). The cell viability was expressed as percentage of control and the concentration that induces 50% of maximum inhibition of cell proliferation (IC50) were determined using Graph Pad Prism version 5 software (Graph Pad Software Inc, San Diego, CA, USA) (1,2).

VEGFR-2 = target: T1, VEGFR-2 (Homo sapiens, UniProt P35968); assay: In vitro VEGFR-2 inhibition assay (Kinase-Glo Plus luminescence); type: biochemical; conditions: read-out: % of VEGFR-2 Inhibition
T1 construct: purchased Bio Science Corporation (BPS), San Diego, CA, USA
T1 sequence (P35968 20-1356): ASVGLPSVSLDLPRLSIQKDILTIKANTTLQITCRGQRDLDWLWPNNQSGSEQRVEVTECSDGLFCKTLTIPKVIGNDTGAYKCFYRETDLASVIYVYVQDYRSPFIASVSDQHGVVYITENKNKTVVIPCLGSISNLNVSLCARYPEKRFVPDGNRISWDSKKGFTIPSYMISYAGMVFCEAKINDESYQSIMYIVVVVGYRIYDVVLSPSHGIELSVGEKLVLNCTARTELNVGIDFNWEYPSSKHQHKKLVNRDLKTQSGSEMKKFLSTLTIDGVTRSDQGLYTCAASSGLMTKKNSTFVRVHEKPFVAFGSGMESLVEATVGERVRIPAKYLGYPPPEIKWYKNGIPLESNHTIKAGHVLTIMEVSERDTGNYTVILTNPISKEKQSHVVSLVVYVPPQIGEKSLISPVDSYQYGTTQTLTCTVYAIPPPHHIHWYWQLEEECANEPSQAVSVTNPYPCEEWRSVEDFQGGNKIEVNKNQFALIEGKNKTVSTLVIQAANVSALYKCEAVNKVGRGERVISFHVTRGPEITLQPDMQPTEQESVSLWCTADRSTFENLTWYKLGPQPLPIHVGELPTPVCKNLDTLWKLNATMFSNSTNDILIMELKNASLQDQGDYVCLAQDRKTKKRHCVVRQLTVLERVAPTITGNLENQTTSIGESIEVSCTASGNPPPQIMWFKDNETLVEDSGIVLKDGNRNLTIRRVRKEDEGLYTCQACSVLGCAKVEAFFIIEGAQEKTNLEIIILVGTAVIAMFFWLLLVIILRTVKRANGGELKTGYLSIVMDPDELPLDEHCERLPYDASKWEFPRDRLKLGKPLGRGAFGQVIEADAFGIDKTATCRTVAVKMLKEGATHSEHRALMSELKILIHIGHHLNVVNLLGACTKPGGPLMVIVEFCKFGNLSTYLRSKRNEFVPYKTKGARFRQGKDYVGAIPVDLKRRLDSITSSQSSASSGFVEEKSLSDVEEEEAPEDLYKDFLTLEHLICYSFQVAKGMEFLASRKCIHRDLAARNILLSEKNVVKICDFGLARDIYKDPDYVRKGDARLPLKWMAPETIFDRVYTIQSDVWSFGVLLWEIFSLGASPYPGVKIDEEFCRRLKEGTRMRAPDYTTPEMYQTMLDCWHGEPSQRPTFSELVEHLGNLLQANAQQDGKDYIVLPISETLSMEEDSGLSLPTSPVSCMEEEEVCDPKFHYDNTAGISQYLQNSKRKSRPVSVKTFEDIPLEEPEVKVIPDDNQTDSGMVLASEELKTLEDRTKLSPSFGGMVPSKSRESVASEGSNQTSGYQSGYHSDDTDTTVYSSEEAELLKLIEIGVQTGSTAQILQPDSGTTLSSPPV
Protocol: In an attempt to investigate the possible mechanism of action of the synthesized compounds based on structural similarity with sorafenib, all of them were tested for VEGFR-2 inhibitory activity at Bio Science Corporation (BPS, San Diego, CA, USA). The assay was performed using the Kinase-Glo Plus luminescence kinase assay kit (Promega, San Diego, CA, USA). It measures kinase activity by quantitating the amount of ATP remaining in solution following a kinase reaction. […].
The in-vitro enzyme inhibition determination for the synthesized compounds was carried out at Bio Science Corporation (BPS)-San Diego, CA, USA. The assay was performed using Kinase-Glo Plus luminescence kinase assay kit (Promega), where the kinase activity was measured by quantitating the amount of ATP remaining in solution following a kinase reaction. The luminescent signal from the assay is correlated with the amount of ATP present and is inversely correlated with the amount of kinase activity. Our compounds were diluted with 10% DMSO and 5 µL of the dilution was added to a 50 µL reaction so that the final concentration of DMSO is 1% in all of reactions. All of the enzymatic reactions were conducted at 30 °C for 40 min. The 50 µL reaction mixture contains 40 mM Tris, pH 7.4, 10 mM MgCl2, 0.1 mg/mL BSA, 1 mM DTT, 10 µM ATP, Kinase substrate and the enzyme. After the enzymatic reaction, 50 µL of Kinase-Glo Plus Luminescence kinase assay solution (Promega San Diego, CA, USA) was added to each reaction and incubate the plate for 5 min at room temperature. Luminescence signal was measured using a BioTek Synergy 2 microplate reader.
Kinase activity assays were performed in duplicate at each concentration. The luminescence data were analyzed using the computer software, Graphpad Prism. The difference between luminescence intensities in the absence of Kinase (Lut) and in the presence of Kinase (Luc) was defined as 100% activity (Lut − Luc). Using luminescence signal (Lu) in the presence of the compound, % activity was calculated as:% activity = {(Lut − Lu)(Lut − Luc)} × 100% where Lu = the luminescence intensity in the presence of the compound.

[2] = test system: MCF-7 human breast adenocarcinoma cell line; assay: In vitro cell proliferation (MTT) assay, MCF-7; type: cell-based; conditions: for IC50: Homo sapiens, MCF7, MTT, 72 h exposure
Protocol: as §1, §2, §3

[3] = test system: HCT116 human colon carcinoma cell line; assay: In vitro cell proliferation (MTT) assay, HCT116; type: cell-based; conditions: for IC50: Homo sapiens, HCT-116, MTT, 72 h exposure
Protocol: as §1, §2, §3

[4] = test system: three tumor cell lines (HCT116, Hep G2 and MCF-7); assay: In vitro anti-cancer activity stated for the tested cell lines together; type: cell-based, human; conditions: HCT116, Hep G2 and MCF-7 together
Protocol: as §1, §2
Exponentially growing cells from different cancer cell lines were trypsinized, counted and seeded at the appropriate densities (2000–1000 cells/0.33 cm^2 well) into 96-well microtiter plates. Cells then were incubated in a humidified atmosphere at 37 °C for 24 h. Then, cells were exposed to different concentrations of compounds (0.1, 10, 100, 1000 µM) for 72 h. Then the viability of treated cells was determined using MTT technique as follow. Media were removed; cells were incubated with 200 μL of 5% MTT solution/well (Sigma Aldrich, Darmstadt, Germany) and were allowed to metabolize the dye into a colored-insoluble formazan crystal for 2 h. […] Absorbance were measured at 570 nm using a Stat Fax^R 4200 plate reader (Awareness Technology, Inc., Awareness Technology, FL, USA). […]

## O=[N+]([O-])c1ccc(S(=O)(=O)Nc2ccc(Nc3nc4ccccc4nc3Cl)cc2)cc1 [XVIIIb, N-(4-((3-Chloroquinoxalin-2-yl)amino)phenyl)-4-nitrobenzenesulfonamide]
other
  melting point: > 300 °C
[1]
  IC50: > 1000 µM
VEGFR-2; single concentration of 10 µM
  inhibition at 10 µM: 9%
[2]
  IC50: 55 µM
[3]
  IC50: > 1000 µM

## Cc1nc2ccccc2nc1Nc1ccc(NC(=O)c2ccc(Cl)cc2)cc1 [Compound VIIb, 4-Chloro-N-(4-((3-methylquinoxalin-2-yl)amino)phenyl)benzamide]
other
  melting point: 234 to 235 °C
[1]
  IC50: 115 µM
VEGFR-2; single concentration of 10 µM
  inhibition at 10 µM: 4%
[2]
  IC50: 138 µM
[3]
  anti-cancer activity against HCT116 cell line (in words): weak activity
  IC50: 27.5 µM

## Cc1ccc(C(=O)Nc2ccc(Nc3nc4ccccc4nc3Cl)cc2)cc1 [XVId, N-(4-((3-Chloroquinoxalin-2-yl)amino)phenyl)-4-methylbenzamide]
other
  melting point: 245 to 246 °C
VEGFR-2; single concentration of 10 µM
  inhibition at 10 µM: 3%

## Cc1nc2ccccc2nc1Nc1ccc(NS(=O)(=O)c2ccc([N+](=O)[O-])cc2)cc1 [IXb, N-(4-((3-Methylquinoxalin-2-yl)amino)phenyl)-4-nitrobenzenesulfonamide]
other
  melting point: 180 to 182 °C
[1]
  IC50: 24.5 µM
VEGFR-2; single concentration of 10 µM
  inhibition at 10 µM: 3%
[2]
  IC50: 10.2 µM
[3]
  IC50: 12 µM

## O=C(Nc1ccc(Cl)cc1)c1cccc(Nc2nc3ccccc3nc2Cl)c1 [Compound XVb, N-(4-Chlorophenyl)-3-((3-chloroquinoxalin-2-yl)amino)benzamide]
[4]
  activity against the tested cell lines (in words): moderate to weak activities
other
  melting point: 283 to 285 °C
[1]
  IC50: 27.5 µM
VEGFR-2; single concentration of 10 µM
  inhibition at 10 µM: 7%
[2]
  IC50: 21.4 µM
[3]
  IC50: 15.5 µM

## COc1ccc(C(=O)Nc2ccc(Nc3nc4ccccc4nc3Cl)cc2)cc1 [XVIc, N-(4-((3-Chloroquinoxalin-2-yl)amino)phenyl)-4-methoxybenzamide]
other
  melting point: 235 to 236 °C
[1]
  IC50: > 1000 µM
VEGFR-2; single concentration of 10 µM
  inhibition at 10 µM: 4%
[2]
  IC50: > 1000 µM
[3]
  IC50: > 1000 µM

## COc1cccc2c1C(=O)c1c(O)c3c(c(O)c1C2=O)C[C@@](O)(C(=O)CO)C[C@@H]3O[C@H]1C[C@H](N)[C@H](O)[C@H](C)O1 [Doxorubicin, reference compound]
[1]
  IC50: 1.2 µM
[2]
  IC50: 0.9 µM
[3]
  IC50: 0.62 µM

## O=C(Nc1ccc(Cl)cc1)Nc1ccc(Nc2nc3ccccc3nc2Cl)cc1 [XVIIc, 1-(4-Chlorophenyl)-3-(4-((3-chloroquinoxalin-2-yl)amino)phenyl)urea]
other
  melting point: > 300 °C
[1]
  IC50: 616 µM
VEGFR-2; single concentration of 10 µM
  inhibition at 10 µM: 6%
[2]
  IC50: 692 µM
[3]
  IC50: 257 µM

## O=C(Nc1ccccc1)Nc1ccc(Nc2nc3ccccc3nc2Cl)cc1 [XVIIb, 1-(4-((3-Chloroquinoxalin-2-yl)amino)phenyl)-3-phenylurea]
other
  melting point: 280 to 281 °C
[1]
  IC50: 513 µM
VEGFR-2; single concentration of 10 µM
  inhibition at 10 µM: 10%
[2]
  IC50: 148 µM
[3]
  IC50: 170 µM

## O=C(Nc1ccc(Nc2nc3ccccc3nc2Cl)cc1)c1ccc(Cl)cc1 [XVIb, 4-Chloro-N-(4-((3-chloroquinoxalin-2-yl)amino)phenyl) benzamide]
other
  melting point: 233 to 235 °C
[1]
  IC50: > 1000 µM
VEGFR-2; single concentration of 10 µM
  inhibition at 10 µM: 4%
[2]
  IC50: > 1000 µM
[3]
  IC50: > 1000 µM

## Cc1cccc(NC(=O)Nc2ccc(Nc3nc4ccccc4nc3C)cc2)c1 [Compound VIIId, 1-(4-((3-Methylquinoxalin-2-yl)amino)phenyl)-3-(m-tolyl)urea]
other
  melting point: 280 to 281 °C
[1]
  anti-cancer activity against Hep G2 cell line (in words): weak activity
  IC50: 36 µM
VEGFR-2; single concentration of 10 µM
  inhibition at 10 µM: 5%
[2]
  anti-cancer activity against MCF-7 cell line (in words): weak activity
  IC50: 30 µM
[3]
  anti-cancer activity against HCT116 cell line (in words): moderate anti-cancer activity
  IC50: 11 µM

## Cc1cccc(NC(=O)Nc2ccc(Nc3nc4ccccc4nc3Cl)cc2)c1 [XVIId, 1-(4-((3-Chloroquinoxalin-2-yl)amino)phenyl)-3-(m-tolyl) urea]
other
  melting point: > 300 °C
[1]
  IC50: 513 µM
VEGFR-2; single concentration of 10 µM
  inhibition at 10 µM: 5%
[2]
  IC50: 64.5 µM
[3]
  IC50: 190 µM

## Cc1ccc(S(=O)(=O)Nc2ccc(Nc3nc4ccccc4nc3Cl)cc2)cc1 [XVIIIa, N-(4-((3-Chloroquinoxalin-2-yl)amino)phenyl)-4-methylbenzenesulfonamide]
other
  melting point: 250 to 252 °C
[1]
  IC50: 490 µM
VEGFR-2; single concentration of 10 µM
  inhibition at 10 µM: 4%
[2]
  IC50: 537 µM
[3]
  IC50: 302 µM

## O=C(Nc1ccc(Nc2nc3ccccc3nc2Cl)cc1)c1ccccc1 [XVIa, N-(4-((3-Chloroquinoxalin-2-yl)amino)phenyl)benzamide]
other
  melting point: 270 to 273 °C
[1]
  IC50: 513 µM
VEGFR-2; single concentration of 10 µM
  inhibition at 10 µM: 8%
[2]
  IC50: 324 µM
[3]
  IC50: 347 µM

## CN[C@@H]1C[C@H]2O[C@@](C)([C@@H]1OC)n1c3ccccc3c3c4c(c5c6ccccc6n2c5c31)C(=O)NC4 [Staurosporine, staurosporine, reference compound]
VEGFR-2
  inhibition at 10 µM: 100%

## S=C(Nc1ccccc1)Nc1ccc(Nc2nc3ccccc3nc2Cl)cc1 [XVIIa, 1-(4-((3-Chloroquinoxalin-2-yl)amino)phenyl)-3-phenylthiourea]
other
  melting point: 190 to 191 °C
[1]
  IC50: 575 µM
VEGFR-2; single concentration of 10 µM
  inhibition at 10 µM: 10%
[2]
  IC50: 170 µM
[3]
  IC50: 309 µM

## Cc1nc2ccccc2nc1Nc1cccc(C(=O)Nc2ccc(Cl)cc2)c1 [VIb, N-(4-Chlorophenyl)-3-((3-methylquinoxalin-2-yl)amino)benzamide]
[4]
  activity against the tested cell lines (in words): no significant inhibitory activity
other
  melting point: 240 to 241 °C
[1]
  IC50: 955 µM
[2]
  IC50: 692 µM
[3]
  IC50: 537 µM

## Cc1ccc(S(=O)(=O)Nc2ccc(Nc3nc4ccccc4nc3C)cc2)cc1 [IXa, 4-Methyl-N-(4-((3-methylquinoxalin-2-yl)amino)phenyl) benzenesulphonamide]
other
  melting point: 198 to 199 °C
[1]
  IC50: 22.9 µM
VEGFR-2; single concentration of 10 µM
  inhibition at 10 µM: 3%
[2]
  IC50: 22.9 µM
[3]
  IC50: 21.9 µM

## Cc1nc2ccccc2nc1Nc1ccc(NC(=O)Nc2ccccc2)cc1 [Compound VIIIb, 1-(4-((3-Methylquinoxalin-2-yl)amino)phenyl)-3-phenylurea]
other
  melting point: > 300 °C
[1]
  anti-cancer activity against Hep G2 cell line (in words): no significant inhibitory activity
  IC50: 98 µM
[1]; relative to VIIIa
  loss of activity towards Hep G2 on conversion of thiourea VIIIa into the urea: 10 fold
VEGFR-2; single concentration of 10 µM
  inhibition at 10 µM: 4%
[2]
  anti-cancer activity against MCF-7 cell line (in words): moderate activity
  IC50: 13.5 µM
[3]
  anti-cancer activity against HCT116 cell line (in words): weak activity
  IC50: 38 µM
